Laboratory results reported in patent US10800791B2, “Triazole ACC inhibitors and uses thereof” (Gilead Apollo, LLC, priority 2015, dated 2020).
In brackets after ≈: the same amount, converted by molar mass. Like-named read-outs stand apart in the source and are kept apart here.

What was measured:
[1] = tested on: Fusarium virguliforme (Fv); assay: Growth inhibition assay of fungal pathogens, Fv; format: cell-based; settings: 48 h
How it was run: (§1)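 Inhibition percentages reflect 48 h OD600 and visual scores relative to a 2% DMSO control. Test concentrations were 50, 10, 2 ppm or 2, 0.4, 0.08 ppm final, applied to spores in 17% V8 medium.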

[2] = tested on: Fusarium moniliforme (Fm); assay: Growth inhibition assay of fungal pathogens, Fm; format: cell-based; settings: for IC90: Fusarium verticillioides, 48 h, read-out: Concentration at 90% Inhibition Fm
How it was run: as §1

C. albicans = assay: Antifungal Activity Assay (broth microtiter MIC), C. albicans; format: cell-based, Candida albicans; settings: Candida albicans, ATCC90028, 48 h
How it was run: (§2)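 Endpoint: lowest concentration visibly inhibiting growth relative to control after 48 h. Inoculum of 2.5×10^3 CFU/mL final in RPMI 1640+MOPS, prepared from overnight 35° C agar cultures; test compounds diluted in water to 128 μg/mL before plating.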

[3] = tested on: Phytophthora capsici (Pc); assay: Growth inhibition assay of fungal pathogens, Pc; format: cell-based; settings: 48 h
How it was run: as §1

Botrtyis cinerea (Bc) = assay: Growth inhibition assay of fungal pathogens, Bc; format: cell-based; settings: 48 h
How it was run: as §1

Diplodia maydis (Dm) = assay: Growth inhibition assay of fungal pathogens, Dm; format: cell-based; settings: Stenocarpella maydis, 48 h
How it was run: as §1

C. parapsilosis = assay: Antifungal Activity Assay (broth microtiter MIC), C. parapsilosis; format: cell-based, Candida parapsilosis; settings: Lodderomyces parapsilosis, ATCC22019, 48 h
How it was run: as §2

[4] = tested on: Collectotrichum graminicola (Cg); assay: Growth inhibition assay of fungal pathogens, Cg; format: cell-based; settings: 48 h
How it was run: as §1

C. krusei = assay: Antifungal Activity Assay (broth microtiter MIC), C. krusei; format: cell-based, Candida krusei; settings: Pichia kudriavzevii, ATCC6258, 48 h
How it was run: as §2

Septoria tritici (St) = assay: Growth inhibition assay of fungal pathogens, St; format: cell-based; settings: Zymoseptoria tritici, 48 h
How it was run: as §1

[5] = Fusarium moniliforme, growth inhibition at 48 hours vs 2% DMSO control
[6] = read-out: Concentration at 90% Inhibition Fv, Fusarium virguliforme, growth inhibition at 48 hours vs 2% DMSO control
[7] = read-out: Concentration at 90% Inhibition Fv, Fusarium virguliforme, growth inhibition vs 2% DMSO control at 48 hours
[8] = read-out: MIC, C. albicans ATCC 90028, Table 3a, 3 replicates, MIC recorded at 48 h
[9] = read-out: MIC, C. albicans ATCC 90028, Table 3b (additional results), 3 replicates, MIC recorded at 48 h
[10] = read-out: Concentration at 90% Inhibition Pc, Phytophthora capsici, growth inhibition at 48 hours vs 2% DMSO control
[11] = read-out: Concentration at 90% Inhibition Pc, Phytophthora capsici, growth inhibition vs 2% DMSO control at 48 hours
[12] = read-out: Concentration at 90% Inhibition Bc, Botrtyis cinerea, growth inhibition at 48 hours vs 2% DMSO control
[13] = read-out: Concentration at 90% Inhibition Bc, Botrtyis cinerea, growth inhibition vs 2% DMSO control at 48 hours
[14] = read-out: Concentration at 90% Inhibition Dm, Diplodia maydis, growth inhibition at 48 hours vs 2% DMSO control
[15] = read-out: Concentration at 90% Inhibition Dm, Diplodia maydis, growth inhibition vs 2% DMSO control at 48 hours
[16] = read-out: MIC, C. parapsilosis ATCC 22019, Table 3a, 3 replicates, MIC recorded at 48 h
[17] = read-out: MIC, C. parapsilosis ATCC 22019, Table 3b (additional results), 3 replicates, MIC recorded at 48 h
[18] = read-out: Concentration at 90% Inhibition Cg, Collectotrichum graminicola, growth inhibition at 48 hours vs 2% DMSO control
[19] = read-out: Concentration at 90% Inhibition Cg, Collectotrichum graminicola, growth inhibition vs 2% DMSO control at 48 hours
[20] = read-out: MIC, C. krusei ATCC 6258, Table 3a, 3 replicates, MIC recorded at 48 h
[21] = read-out: MIC, C. krusei ATCC 6258, Table 3b (additional results), 3 replicates, MIC recorded at 48 h
[22] = read-out: Concentration at 90% Inhibition St, Septoria tritici, growth inhibition at 48 hours vs 2% DMSO control
[23] = read-out: Concentration at 90% Inhibition St, Septoria tritici, growth inhibition vs 2% DMSO control at 48 hours

Row | SMILES | IC90 [1, 6] [µg/mL] | IC90 [1, 7] [µg/mL] | Concentration at 90% Inhibition Fm [2, 5] | IC90 [2] [µg/mL] | MIC (C. albicans; [8]) [µg/mL] | MIC (C. albicans; [9]) [µg/mL] | IC90 [3, 10] [µg/mL] | IC90 [3, 11] [µg/mL] | IC90 (Botrtyis cinerea (Bc); [12]) [µg/mL] | IC90 (Botrtyis cinerea (Bc); [13]) [µg/mL] | IC90 (Diplodia maydis (Dm); [14]) [µg/mL] | IC90 (Diplodia maydis (Dm); [15]) [µg/mL] | MIC (C. parapsilosis; [16]) [µg/mL] | MIC (C. parapsilosis; [17]) [µg/mL] | IC90 [4, 18] [µg/mL] | IC90 [4, 19] [µg/mL] | MIC (C. krusei; [20]) [µg/mL] | MIC (C. krusei; [21]) [µg/mL] | IC90 (Septoria tritici (St); [22]) [µg/mL] | IC90 (Septoria tritici (St); [23]) [µg/mL] | further results
1 | CCNC(=O)C(C)(C)n1c(=O)c2c(C)c(-n3nccn3)sc2n(C[C@H](OC2CCOCC2)c2ccccc2OC)c1=O [Compound I-15, (R)—N-ethyl-2-(1-(2-(2-methoxyphenyl)-2-((tetrahydro-2H-pyran-4-yl)oxy)ethyl)-5-methyl-2,4-dioxo-6-(2H-1,2,3-triazol-2-yl)-1,4-dihydro-thieno[2,3-d]pyrimidin-3(2H)-yl)-2-methylpropanamide] | – | – | – | – | – | – | – | – | – | – | – | – | – | – | – | – | – | – | – | – | IC90 ([1]; growth inhibition at 48 hours vs 2% DMSO control, read-out: Concentration at 90% Inhibition Fv): 10 µg/mL (≈ 16.8 µM); IC90 ([1]; growth inhibition vs 2% DMSO control at 48 hours, read-out: Concentration at 90% Inhibition Fv): > 50 µg/mL; IC90 [2, 5]: 0.08 µg/mL (≈ 0.134 µM); IC90 ([2]; Fusarium moniliforme, growth inhibition vs 2% DMSO control at 48 hours): 0.08 µg/mL (≈ 0.134 µM); MIC (C. albicans; Table 3a, ATCC 90028, 3 replicates, MIC recorded at 48 h, read-out: MIC, C. albicans ATCC 90028): 0.25 to 1 µg/mL (≈ 0.419 to 1.68 µM); MIC (C. albicans; Table 3b (additional results), ATCC 90028, 3 replicates, MIC recorded at 48 h, read-out: MIC, C. albicans ATCC 90028): 0.25 to 1 µg/mL (≈ 0.419 to 1.68 µM); IC90 ([3]; growth inhibition at 48 hours vs 2% DMSO control, read-out: Concentration at 90% Inhibition Pc): > 50 µg/mL; IC90 ([3]; growth inhibition vs 2% DMSO control at 48 hours, read-out: Concentration at 90% Inhibition Pc): > 50 µg/mL; IC90 (Botrtyis cinerea (Bc); Botrtyis cinerea, growth inhibition at 48 hours vs 2% DMSO control, read-out: Concentration at 90% Inhibition Bc): 0.4 µg/mL (≈ 0.67 µM); IC90 (Botrtyis cinerea (Bc); Botrtyis cinerea, growth inhibition vs 2% DMSO control at 48 hours, read-out: Concentration at 90% Inhibition Bc): 0.4 µg/mL (≈ 0.67 µM); IC90 (Diplodia maydis (Dm); Diplodia maydis, growth inhibition at 48 hours vs 2% DMSO control, read-out: Concentration at 90% Inhibition Dm): 10 µg/mL (≈ 16.8 µM); IC90 (Diplodia maydis (Dm); Diplodia maydis, growth inhibition vs 2% DMSO control at 48 hours, read-out: Concentration at 90% Inhibition Dm): > 50 µg/mL; MIC (C. parapsilosis; Table 3a, ATCC 22019, 3 replicates, MIC recorded at 48 h, read-out: MIC, C. parapsilosis ATCC 22019): 0.25 to 1 µg/mL (≈ 0.419 to 1.68 µM); MIC (C. parapsilosis; Table 3b (additional results), ATCC 22019, 3 replicates, MIC recorded at 48 h, read-out: MIC, C. parapsilosis ATCC 22019): 0.25 to 1 µg/mL (≈ 0.419 to 1.68 µM); IC90 ([4]; Collectotrichum graminicola, growth inhibition at 48 hours vs 2% DMSO control, read-out: Concentration at 90% Inhibition Cg): 2 µg/mL (≈ 3.35 µM); IC90 ([4]; Collectotrichum graminicola, growth inhibition vs 2% DMSO control at 48 hours, read-out: Concentration at 90% Inhibition Cg): 10 µg/mL (≈ 16.8 µM); MIC (C. krusei; Table 3a, ATCC 6258, 3 replicates, MIC recorded at 48 h, read-out: MIC, C. krusei ATCC 6258): 0.25 to 1 µg/mL (≈ 0.419 to 1.68 µM); MIC (C. krusei; Table 3b (additional results), ATCC 6258, 3 replicates, MIC recorded at 48 h, read-out: MIC, C. krusei ATCC 6258): 0.25 to 1 µg/mL (≈ 0.419 to 1.68 µM); IC90 (Septoria tritici (St); Septoria tritici, growth inhibition at 48 hours vs 2% DMSO control, read-out: Concentration at 90% Inhibition St): > 50 µg/mL; IC90 (Septoria tritici (St); Septoria tritici, growth inhibition vs 2% DMSO control at 48 hours, read-out: Concentration at 90% Inhibition St): > 50 µg/mL
2 | COc1ccccc1[C@H](Cn1c(=O)n(C(C)(C)C(=O)N2CC(O)C2)c(=O)c2c(C)c(-n3nccn3)sc21)OC1CCOCC1 [Compound I-19, (R)-3-(1-(3-hydroxyazetidin-1-yl)-2-methyl-1-oxopropan-2-yl)-1-(2-(2-methoxyphenyl)-2-((tetrahydro-2H-pyran-4-yl)oxy)ethyl)-5-methyl-6-(2H-1,2,3-triazol-2-yl)thieno[2,3-d]pyrimidine-2,4(1H,3H)-dione] | 10 (≈ 16 µM) | > 50 | B (compound concentration of 2.0 ppm at 90% inhibition of fungal pathogens) | 2 (≈ 3.2 µM) | 2.1 to 4 (≈ 3.36 to 6.4 µM) | 1.01 to 2 (≈ 1.62 to 3.2 µM) | > 50 | > 50 | 10 (≈ 16 µM) | > 50 | > 50 | > 50 | 2.1 to 4 (≈ 3.36 to 6.4 µM) | 1.01 to 2 (≈ 1.62 to 3.2 µM) | > 50 | > 50 | 2.1 to 4 (≈ 3.36 to 6.4 µM) | 2.01 to 4 (≈ 3.22 to 6.4 µM) | > 50 | > 50 | –
3 | COc1ccc(F)cc1[C@H](Cn1c(=O)n(C(C)(C)C(=O)N2CCCCC2)c(=O)c2c(C)c(-n3nccn3)sc21)OC1CCOCC1 [Compound I-24, (R)-1-(2-(5-fluoro-2-methoxyphenyl)-2-((tetrahydro-2H-pyran-4-yl)oxy)ethyl)-5-methyl-3-(2-methyl-1-oxo-1-(piperidin-1-yl)propan-2-yl)-6-(2H-1,2,3-triazol-2-yl)thieno[2,3-d]pyrimidine-2,4(1H,3H)-dione] | 0.4 (≈ 0.611 µM) | 0.4 (≈ 0.611 µM) | AA (compound concentration of 0.08 ppm at 90% inhibition of fungal pathogens) | 0.08 (≈ 0.122 µM) | 0.25 to 1 (≈ 0.382 to 1.53 µM) | 0.25 to 1 (≈ 0.382 to 1.53 µM) | > 50 | > 50 | 0.4 (≈ 0.611 µM) | 0.4 (≈ 0.611 µM) | 0.08 (≈ 0.122 µM) | 0.08 (≈ 0.122 µM) | 0.25 to 1 (≈ 0.382 to 1.53 µM) | 0.25 to 1 (≈ 0.382 to 1.53 µM) | 0.08 (≈ 0.122 µM) | 0.08 (≈ 0.122 µM) | 0.25 to 1 (≈ 0.382 to 1.53 µM) | 0.25 to 1 (≈ 0.382 to 1.53 µM) | 2 (≈ 3.05 µM) | 10 (≈ 15.3 µM) | –
